Data as given in patent US7834005B2, “Pyrrolobenzodiazepine derivatives, compositions comprising the same and methods related thereto” (The United States of America as represented by the …, priority 2003, dated 2010).
Like-named read-outs stand apart in the source and are kept apart here.

Key:
CCRF-CEM = experiment: 60-cell-line screen: CCRF-CEM (Leukemia); type: cell-based
MOLT-4 = experiment: 60-cell-line screen: MOLT-4 (Leukemia); type: cell-based
RPMI-8226 = experiment: 60-cell-line screen: RPMI-8226 (Leukemia); type: cell-based
A549/ATCC = experiment: 60-cell-line screen: A549/ATCC (Non-Small Cell Lung); type: cell-based; conditions: read-out: LC50 (the source's name)
From the text: (§1) The concentration effects of the compound for various cancer cell lines are summarized in Tables 2-10, wherein GI50 is the drug concentration required to inhibit the growth of 50% of the cells, TGI is the drug concentration required for total growth inhibition, and LC50 is the drug concentration required to kill 50% of the cells.

EKVX = experiment: 60-cell-line screen: EKVX (Non-Small Cell Lung); type: cell-based; conditions: read-out: LC50 (the source's name)
HOP-62 = experiment: 60-cell-line screen: HOP-62 (Non-Small Cell Lung); type: cell-based; conditions: read-out: LC50 (the source's name)
HOP-92 = experiment: 60-cell-line screen: HOP-92 (Non-Small Cell Lung); type: cell-based; conditions: read-out: LC50 (the source's name)
NCI-H226 = experiment: 60-cell-line screen: NCI-H226 (Non-Small Cell Lung); type: cell-based; conditions: read-out: LC50 (the source's name)
NCI-H23 = experiment: 60-cell-line screen: NCI-H23 (Non-Small Cell Lung); type: cell-based
NCI-H322M = experiment: 60-cell-line screen: NCI-H322M (Non-Small Cell Lung); type: cell-based; conditions: read-out: LC50 (the source's name)
NCI-H460 = experiment: 60-cell-line screen: NCI-H460 (Non-Small Cell Lung); type: cell-based; conditions: read-out: LC50 (the source's name)
NCI-H522 = experiment: 60-cell-line screen: NCI-H522 (Non-Small Cell Lung); type: cell-based; conditions: read-out: LC50 (the source's name)
COLO 205 = experiment: 60-cell-line screen: COLO 205 (Colon); type: cell-based
HCT-15 = experiment: 60-cell-line screen: HCT-15 (Colon); type: cell-based; conditions: read-out: LC50 (the source's name)
KM12 = experiment: 60-cell-line screen: KM12 (Colon); type: cell-based; conditions: read-out: LC50 (the source's name)
From the text: as §1

SW-620 = experiment: 60-cell-line screen: SW-620 (Colon); type: cell-based; conditions: read-out: LC50 (the source's name)
From the text: as §1

SF-268 = experiment: 60-cell-line screen: SF-268 (Central Nervous System); type: cell-based; conditions: read-out: LC50 (the source's name)
From the text: as §1

SF-295 = experiment: 60-cell-line screen: SF-295 (Central Nervous System); type: cell-based; conditions: read-out: LC50 (the source's name)
From the text: as §1

SF-539 = experiment: 60-cell-line screen: SF-539 (Central Nervous System); type: cell-based; conditions: read-out: LC50 (the source's name)
From the text: as §1

SNB-19 = experiment: 60-cell-line screen: SNB-19 (Central Nervous System); type: cell-based; conditions: read-out: LC50 (the source's name)
SNB-75 = experiment: 60-cell-line screen: SNB-75 (Central Nervous System); type: cell-based
U251 = experiment: 60-cell-line screen: U251 (Central Nervous System); type: cell-based; conditions: read-out: LC50 (the source's name)
MALME-3M = experiment: 60-cell-line screen: MALME-3M (Melanoma); type: cell-based
M14 = experiment: 60-cell-line screen: M14 (Melanoma); type: cell-based; conditions: read-out: LC50 (the source's name)
SK-MEL-2 = experiment: 60-cell-line screen: SK-MEL-2 (Melanoma); type: cell-based
SK-MEL-28 = experiment: 60-cell-line screen: SK-MEL-28 (Melanoma); type: cell-based; conditions: read-out: LC50 (the source's name)
UACC-257 = experiment: 60-cell-line screen: UACC-257 (Melanoma); type: cell-based
UACC-62 = experiment: 60-cell-line screen: UACC-62 (Melanoma); type: cell-based
IGROV1 = experiment: 60-cell-line screen: IGROV1 (Ovarian); type: cell-based
OVCAR-3 = experiment: 60-cell-line screen: OVCAR-3 (Ovarian); type: cell-based
From the text: as §1

OVCAR-4 = experiment: 60-cell-line screen: OVCAR-4 (Ovarian); type: cell-based
From the text: as §1

OVCAR-5 = experiment: 60-cell-line screen: OVCAR-5 (Ovarian); type: cell-based
From the text: as §1

OVCAR-8 = experiment: 60-cell-line screen: OVCAR-8 (Ovarian); type: cell-based
From the text: as §1

SK-OV-3 = experiment: 60-cell-line screen: SK-OV-3 (Ovarian); type: cell-based
From the text: as §1

786-0 = experiment: 60-cell-line screen: 786-0 (Renal); type: cell-based
ACHN = experiment: 60-cell-line screen: ACHN (Renal); type: cell-based
CAKI-1 = experiment: 60-cell-line screen: CAKI-1 (Renal); type: cell-based
SN12C = experiment: 60-cell-line screen: SN12C (Renal); type: cell-based
TK-10 = experiment: 60-cell-line screen: TK-10 (Renal); type: cell-based
UO-31 = experiment: 60-cell-line screen: UO-31 (Renal); type: cell-based
PC-3 = experiment: 60-cell-line screen: PC-3 (Prostate); type: cell-based
DU-145 = experiment: 60-cell-line screen: DU-145 (Prostate); type: cell-based
NCI/ADR-RES = experiment: 60-cell-line screen: NCI/ADR-RES (Breast); type: cell-based
From the text: as §1

MDA-MB-231/ATCC = experiment: 60-cell-line screen: MDA-MB-231/ATCC (Breast); type: cell-based
From the text: as §1

HS 578T = experiment: 60-cell-line screen: HS 578T (Breast); type: cell-based; conditions: read-out: LC50 (the source's name)
From the text: as §1

MDA-MB-435 = experiment: 60-cell-line screen: MDA-MB-435 (Breast); type: cell-based
MDA-N = experiment: 60-cell-line screen: MDA-N (Breast); type: cell-based
BT-549 = experiment: 60-cell-line screen: BT-549 (Breast); type: cell-based; conditions: read-out: LC50 (the source's name)
From the text: as §1

T-47D = experiment: 60-cell-line screen: T-47D (Breast); type: cell-based; conditions: read-out: LC50 (the source's name)
[1] = read-out: LC50 (the source's name)

`C=C1C[C@H]2C(O)Nc3cc(OCCCOc4cc5c(cc4OC)C(=O)N4CC(=C)C[C@H]4C(O)N5)c(OC)cc3C(=O)N2C1` (stereo partly shown) [Compound 16] was tested, and the LC50 (CCRF-CEM) was −6 Log10[C] (M), the CC50 (CCRF-CEM; [1]) was 1000 nM and the LC50 (MOLT-4) was −7.15 Log10[C] (M). The CC50 (MOLT-4; [1]) was 70.8 nM, the LC50 (RPMI-8226) was −7.08 Log10[C] (M) and the CC50 (RPMI-8226; [1]) was 83.2 nM. It also gave a CC50 (A549/ATCC) of 1000 nM, a CC50 (EKVX) of 1000 nM and a CC50 (HOP-62) of 1000 nM. For the same molecule, the CC50 (HOP-92) was 1000 nM, the CC50 (NCI-H226) was 1000 nM and the LC50 (NCI-H23) was −7.17 Log10[C] (M). The CC50 (NCI-H23; [1]) was 67.6 nM, the CC50 (NCI-H322M) was 1000 nM and the CC50 (NCI-H460) was 1000 nM. For the same molecule, the CC50 (NCI-H522) was 1000 nM, the LC50 (COLO 205) was −6.6 Log10[C] (M) and the CC50 (COLO 205; [1]) was 251 nM. The CC50 (HCT-15) was 1000 nM, the CC50 (KM12) was 1000 nM and the CC50 (SW-620) was 1000 nM. For the same molecule, the CC50 (SF-268) was 1000 nM, the CC50 (SF-295) was 1000 nM and the CC50 (SF-539) was 1000 nM. The CC50 (SNB-19) was 1000 nM, the LC50 (SNB-75) was −6.33 Log10[C] (M) and the CC50 (SNB-75; [1]) was 468 nM. For the same molecule, the CC50 (U251) was 1000 nM, the LC50 (MALME-3M) was −7.15 Log10[C] (M) and the CC50 (MALME-3M; [1]) was 70.8 nM. The CC50 (M14) was 1000 nM, the LC50 (SK-MEL-2) was −7.14 Log10[C] (M) and the CC50 (SK-MEL-2; [1]) was 72.4 nM. The CC50 (SK-MEL-28) was 1000 nM, the LC50 (UACC-257) was 1000 nM and the LC50 (UACC-62) was −8.15 Log10[C] (M). For the same molecule, the CC50 (UACC-62; [1]) was 7.1 nM, the LC50 (IGROV1) was −6 Log10[C] (M) and the LC50 (IGROV1; read-out: LC50) was 1000 nM. The LC50 (OVCAR-3) was −6 Log10[C] (M), the CC50 (OVCAR-3; [1]) was 1000 nM and the LC50 (OVCAR-4) was −6 Log10[C] (M). The CC50 (OVCAR-4; [1]) was 1000 nM, the LC50 (OVCAR-5) was −6 Log10[C] (M) and the CC50 (OVCAR-5; [1]) was 1000 nM. For the same molecule, the LC50 (OVCAR-8) was −6 Log10[C] (M), the CC50 (OVCAR-8; [1]) was 1000 nM and the LC50 (SK-OV-3) was −6 Log10[C] (M). The LC50 (SK-OV-3; read-out: LC50) was 1000 nM, the LC50 (786-0) was −6 Log10[C] (M) and the CC50 (786-0; [1]) was 1000 nM. The LC50 (ACHN) was −6 Log10[C] (M), the CC50 (ACHN; [1]) was 1000 nM and the LC50 (CAKI-1) was −6 Log10[C] (M). For the same molecule, the CC50 (CAKI-1; [1]) was 1000 nM, the LC50 (SN12C) was −6 Log10[C] (M) and the CC50 (SN12C; [1]) was 1000 nM. The LC50 (TK-10) was −6 Log10[C] (M), the LC50 (TK-10; read-out: LC50) was 1000 nM and the LC50 (UO-31) was −6 Log10[C] (M). The CC50 (UO-31; [1]) was 1000 nM, the LC50 (PC-3) was −6 Log10[C] (M) and the CC50 (PC-3; [1]) was 1000 nM. For the same molecule, the LC50 (DU-145) was −6 Log10[C] (M), the CC50 (DU-145; [1]) was 1000 nM and the LC50 (NCI/ADR-RES) was 1000 nM. The LC50 (MDA-MB-231/ATCC) was 1000 nM, the CC50 (HS 578T) was 1000 nM and the LC50 (MDA-MB-435) was −7.07 Log10[C] (M). The CC50 (MDA-MB-435; [1]) was 85.1 nM, the LC50 (MDA-N) was −7.24 Log10[C] (M) and the CC50 (MDA-N; [1]) was 57.5 nM. For the same molecule, the CC50 (BT-549) was 1000 nM, the CC50 (T-47D) was 1000 nM and the LC50 (HL-60(TB); Leukemia) was −7.55 Log10[C] (M). It also gave a CC50 (HL-60(TB); read-out: LC50, Leukemia) of 28.2 nM.
